Laboratory results: the supplement of paper PMC10307832

What was measured:
Experiment in all cases: relative viability (nuclei count vs DMSO), 5 days (fraction); higher = more cells survive
[1] = tested on: 201T
In short: (§1)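 Relative viability is defined as nuclei in treated wells over nuclei in vehicle wells. Duplicate plates were run and medians reported. Lung cancer cell lines in 1536-well plates were dosed by pin tool one day after seeding, with one drug or with a fixed anchor-drug dose plus five library-drug doses (not always all listed) in √10 steps, and nuclei were counted after 5 days.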

[2] = tested on: COR-L 105
In short: as §1

[3] = tested on: ChaGo-K-1
In short: as §1

[4] = tested on: EKVX
In short: as §1

[5] = tested on: H3255
In short: as §1

[6] = tested on: HARA
In short: as §1

[7] = tested on: HCC-827
In short: as §1

[8] = tested on: HOP-62
In short: as §1

[9] = tested on: LCLC-103H
In short: as §1

[10] = tested on: LOU-NH91
In short: as §1

[11] = tested on: NCI-H1975
In short: as §1

[12] = tested on: NCI-H2126
In short: as §1

[13] = tested on: NCI-H2228
In short: as §1

[14] = tested on: NCI-H23
In short: as §1

[15] = tested on: NCI-H2405
In short: as §1

[16] = tested on: NCI-H3122
In short: as §1

[17] = tested on: NCI-H596
In short: as §1

[18] = tested on: NCI-H650
In short: as §1

[19] = tested on: NCI-H661
In short: as §1

[20] = tested on: NCI-H727
In short: as §1

[21] = tested on: PC-3 [JPC-3]
In short: as §1

[22] = tested on: SK-LU-1
In short: as §1

[23] = tested on: SW 900
In short: as §1

Q: CCNC(=O)c1noc(-c2cc(C(C)C)c(O)cc2O)c1-c1ccc(CN2CCOCC2)cc1 [Luminespib] + O=C(c1cc(Cc2n[nH]c(=O)c3ccccc23)ccc1F)N1CCN(C(=O)C2CC2)CC1 [Olaparib] (partner 8 µM) was tested. Which relative viability ([1]; first compound 0.002 µM) did it give?
A: 0.883

Q: And the relative viability ([1]; first compound 0.006325 µM)?
A: 0.829

Q: What about the relative viability ([1]; first compound 0.02 µM) of the same compound?
A: 0.87

Q: What about the relative viability ([1]; first compound 0.06325 µM) of the same compound?
A: 0.803

Q: And the relative viability ([1]; first compound 0.2 µM)?
A: 0.784

Q: And the relative viability ([2]; first compound 0.002 µM)?
A: 0.737

Q: What about the relative viability ([2]; first compound 0.006325 µM) of the same compound?
A: 0.647

Q: What about the relative viability ([2]; first compound 0.02 µM) of the same compound?
A: 0.646

Q: And the relative viability ([2]; first compound 0.06325 µM)?
A: 0.256

Q: What about the relative viability ([2]; first compound 0.2 µM) of the same compound?
A: 0.295

Q: And the relative viability ([3]; first compound 0.002 µM)?
A: 0.42

Q: And the relative viability ([3]; first compound 0.006325 µM)?
A: 0.407

Q: What about the relative viability ([3]; first compound 0.02 µM) of the same compound?
A: 0.439

Q: What about the relative viability ([3]; first compound 0.06325 µM) of the same compound?
A: 0.452

Q: And the relative viability ([3]; first compound 0.2 µM)?
A: 0.36

Q: And the relative viability ([4]; first compound 0.002 µM)?
A: 0.881

Q: What about the relative viability ([4]; first compound 0.006325 µM) of the same compound?
A: 0.881

Q: And the relative viability ([4]; first compound 0.02 µM)?
A: 0.651

Q: And the relative viability ([4]; first compound 0.06325 µM)?
A: 0.541

Q: What about the relative viability ([4]; first compound 0.2 µM) of the same compound?
A: 0.155

Q: What about the relative viability ([5]; first compound 0.002 µM) of the same compound?
A: 0.59

Q: What about the relative viability ([5]; first compound 0.006325 µM) of the same compound?
A: 0.521

Q: And the relative viability ([5]; first compound 0.02 µM)?
A: 0.563

Q: What about the relative viability ([5]; first compound 0.06325 µM) of the same compound?
A: 0.337

Q: What about the relative viability ([5]; first compound 0.2 µM) of the same compound?
A: 0.253

Q: What about the relative viability ([6]; first compound 0.002 µM) of the same compound?
A: 0.425

Q: What about the relative viability ([6]; first compound 0.006325 µM) of the same compound?
A: 0.814

Q: What about the relative viability ([6]; first compound 0.02 µM) of the same compound?
A: 0.997

Q: And the relative viability ([6]; first compound 0.06325 µM)?
A: 0.146

Q: What about the relative viability ([6]; first compound 0.2 µM) of the same compound?
A: 0.102

Q: And the relative viability ([7]; first compound 0.002 µM)?
A: 0.595

Q: What about the relative viability ([7]; first compound 0.006325 µM) of the same compound?
A: 0.64

Q: And the relative viability ([7]; first compound 0.02 µM)?
A: 0.537

Q: What about the relative viability ([7]; first compound 0.06325 µM) of the same compound?
A: 0.143

Q: What about the relative viability ([7]; first compound 0.2 µM) of the same compound?
A: 0.167

Q: And the relative viability ([8]; first compound 0.002 µM)?
A: 0.533

Q: And the relative viability ([8]; first compound 0.006325 µM)?
A: 0.453

Q: And the relative viability ([8]; first compound 0.02 µM)?
A: 0.723

Q: What about the relative viability ([8]; first compound 0.06325 µM) of the same compound?
A: 0.0994

Q: What about the relative viability ([8]; first compound 0.2 µM) of the same compound?
A: 0.138

Q: And the relative viability ([9]; first compound 0.002 µM)?
A: 0.76

Q: What about the relative viability ([9]; first compound 0.006325 µM) of the same compound?
A: 0.73

Q: And the relative viability ([9]; first compound 0.02 µM)?
A: 0.78

Q: And the relative viability ([9]; first compound 0.06325 µM)?
A: 0.681

Q: And the relative viability ([9]; first compound 0.2 µM)?
A: 0.809

Q: And the relative viability ([10]; first compound 0.002 µM)?
A: 0.967

Q: What about the relative viability ([10]; first compound 0.006325 µM) of the same compound?
A: 0.89

Q: What about the relative viability ([10]; first compound 0.02 µM) of the same compound?
A: 0.445

Q: And the relative viability ([10]; first compound 0.06325 µM)?
A: 0.351

Q: And the relative viability ([10]; first compound 0.2 µM)?
A: 0.348

Q: And the relative viability ([11]; first compound 0.002 µM)?
A: 0.875

Q: And the relative viability ([11]; first compound 0.006325 µM)?
A: 0.802

Q: And the relative viability ([11]; first compound 0.02 µM)?
A: 0.919

Q: And the relative viability ([11]; first compound 0.06325 µM)?
A: 0.128

Q: What about the relative viability ([11]; first compound 0.2 µM) of the same compound?
A: 0.156

Q: What about the relative viability ([12]; first compound 0.002 µM) of the same compound?
A: 0.924

Q: What about the relative viability ([12]; first compound 0.006325 µM) of the same compound?
A: 0.887

Q: And the relative viability ([12]; first compound 0.06325 µM)?
A: 0.899

Q: And the relative viability ([12]; first compound 0.2 µM)?
A: 0.903

Q: And the relative viability ([13]; first compound 0.002 µM)?
A: 0.595

Q: What about the relative viability ([13]; first compound 0.006325 µM) of the same compound?
A: 0.638

Q: And the relative viability ([13]; first compound 0.02 µM)?
A: 0.326

Q: What about the relative viability ([13]; first compound 0.06325 µM) of the same compound?
A: 0.128

Q: What about the relative viability ([13]; first compound 0.2 µM) of the same compound?
A: 0.142

Q: What about the relative viability ([14]; first compound 0.002 µM) of the same compound?
A: 0.36

Q: And the relative viability ([14]; first compound 0.006325 µM)?
A: 0.333

Q: What about the relative viability ([14]; first compound 0.02 µM) of the same compound?
A: 0.346

Q: And the relative viability ([14]; first compound 0.06325 µM)?
A: 0.102

Q: What about the relative viability ([14]; first compound 0.2 µM) of the same compound?
A: 0.121

Q: What about the relative viability ([15]; first compound 0.002 µM) of the same compound?
A: 0.948

Q: What about the relative viability ([15]; first compound 0.02 µM) of the same compound?
A: 0.813

Q: And the relative viability ([15]; first compound 0.06325 µM)?
A: 0.181

Q: And the relative viability ([15]; first compound 0.2 µM)?
A: 0.182

Q: What about the relative viability ([16]; first compound 0.002 µM) of the same compound?
A: 0.626

Q: What about the relative viability ([16]; first compound 0.006325 µM) of the same compound?
A: 0.567

Q: What about the relative viability ([16]; first compound 0.02 µM) of the same compound?
A: 0.68

Q: And the relative viability ([16]; first compound 0.06325 µM)?
A: 0.56

Q: What about the relative viability ([16]; first compound 0.2 µM) of the same compound?
A: 0.646

Q: What about the relative viability ([17]; first compound 0.002 µM) of the same compound?
A: 0.752

Q: And the relative viability ([17]; first compound 0.006325 µM)?
A: 0.695

Q: What about the relative viability ([17]; first compound 0.02 µM) of the same compound?
A: 0.749

Q: What about the relative viability ([17]; first compound 0.06325 µM) of the same compound?
A: 0.617

Q: And the relative viability ([17]; first compound 0.2 µM)?
A: 0.602

Q: What about the relative viability ([18]; first compound 0.002 µM) of the same compound?
A: 0.452

Q: What about the relative viability ([18]; first compound 0.006325 µM) of the same compound?
A: 0.338

Q: What about the relative viability ([18]; first compound 0.02 µM) of the same compound?
A: 0.34

Q: And the relative viability ([18]; first compound 0.06325 µM)?
A: 0.061

Q: And the relative viability ([18]; first compound 0.2 µM)?
A: 0.0723

Q: And the relative viability ([19]; first compound 0.002 µM)?
A: 0.754

Q: What about the relative viability ([19]; first compound 0.006325 µM) of the same compound?
A: 0.804

Q: And the relative viability ([19]; first compound 0.02 µM)?
A: 0.807

Q: And the relative viability ([19]; first compound 0.06325 µM)?
A: 0.414

Q: And the relative viability ([19]; first compound 0.2 µM)?
A: 0.3

Q: What about the relative viability ([20]; first compound 0.002 µM) of the same compound?
A: 0.674

Q: And the relative viability ([20]; first compound 0.006325 µM)?
A: 0.767

Q: What about the relative viability ([20]; first compound 0.02 µM) of the same compound?
A: 0.695

Q: What about the relative viability ([20]; first compound 0.06325 µM) of the same compound?
A: 0.403

Q: What about the relative viability ([20]; first compound 0.2 µM) of the same compound?
A: 0.271

Q: What about the relative viability ([21]; first compound 0.002 µM) of the same compound?
A: 1.09

Q: And the relative viability ([21]; first compound 0.006325 µM)?
A: 1.04

Q: And the relative viability ([21]; first compound 0.02 µM)?
A: 0.863

Q: And the relative viability ([21]; first compound 0.06325 µM)?
A: 0.392

Q: What about the relative viability ([21]; first compound 0.2 µM) of the same compound?
A: 0.398

Q: And the relative viability ([22]; first compound 0.002 µM)?
A: 0.538

Q: And the relative viability ([22]; first compound 0.006325 µM)?
A: 0.4

Q: And the relative viability ([22]; first compound 0.02 µM)?
A: 0.475

Q: And the relative viability ([22]; first compound 0.06325 µM)?
A: 0.187

Q: What about the relative viability ([22]; first compound 0.2 µM) of the same compound?
A: 0.179

Q: And the relative viability ([23]; first compound 0.002 µM)?
A: 0.688

Q: And the relative viability ([23]; first compound 0.006325 µM)?
A: 0.81

Q: What about the relative viability ([23]; first compound 0.02 µM) of the same compound?
A: 0.818

Q: And the relative viability ([23]; first compound 0.06325 µM)?
A: 0.163

Q: And the relative viability ([23]; first compound 0.2 µM)?
A: 0.152
